Laboratory results published in US6949522B2, “β-2′- or 3′-halonucleosides” (Pharmasset, Inc., priority 2001, dated 2005).

How the values were obtained:
[1] = test system: mitochondrial cytochrome C oxidase subunit II (COXII) gene; type: cell-based, human; conditions: HepG2, 10 μM, 7 days; for COXIINrDNA (range) relative to control: COXII DNA normalized to rDNA
HIV-1 LAI (wild type) = assay: HIV-1 Q-RT-PCR assay in human PBM cells, strain LAI; type: cell-based; conditions: 5 days, viral RNA reduced by 90%
Experimental: Human PBM cells (1×10^6 cells/T25 flask) were PHA stimulated for 2 or 3 days, and infected with either a wild type (LAI and xxBRU) or a 3TC-resistant (xxBRU 184V) HIV-1 strain at 100 TCID50, as previously described (27). The culture was kept for 5 days in presence of test compounds at serial 1-log dilutions. Subsequently, human PBM cells were removed from the culture supernatant by centrifugation (10 minutes, 400×g, 4° C.). This clarified supernatant was tested either in the RT-assay, or in the Q-RT-PCR assay.
Viral RNA present in the culture supernatant was prepared using commercially available columns (QIAamp Viral RNA mini Kit, Qiagen, Valencia, Calif.). Viral RNA was detected in real-time by monitoring increases in fluorescence signal that resulted from degradation of a quenched fluorescent probe molecule following the hybridization of the probe to the arnplified viral DNA (TaqMan 7700 chemistry, Applied Biosystems, Foster City, Calif.). The TaqMan probe and primers were designed using the Primer Express software (Applied Biosystems); they cover highly conserved sequences complementary to an 81 base pair long fragment from the HIV-1 RT gene between codon 230 and 257 of the group MHIV-1 genome; • probe 5′-6FAM-[…]-TAMRA-3′ (Sequence 1) • sense primer: 5′-[…]-3′ (Sequence 2); and • antisense primer 5′-[…]-3′ (Sequence 3).
A total of 5 μL RNA was RT-amplified using reagents and conditions as described by the manufacturer (Applied Biosystems). […] Copy numbers were calibrated using the Roche Amplicor HIV-1 Monitor test™ (Roche Diagnostics, Branchburg, N.J.) on a 1-log dilution series of a clinical HIV-1 genotype B isolate (attenuated in vitro to obtain a high viral load). The 10-6 diluted sample became positive at threshold cycle (Ct=PCR cycle threshold where a sample becomes detectable)=35.52, which corresponded to 1,410 copies/mL in the Roche monitor HIV-1 version II assay. When validated over a dynamic range of 3 logs of virus, there was excellent correlation (r2˜1) between the two methodologies. […] Therefore, the currently designed primer and probe set allowed reliable quantification of both clinical samples and HIV-1 in vitro preparations.
HIV-1 present in culture supernatant fluids was quantified by two different methodologies: i) the Q-RT-PCR with read-out in log copies/mL; and ii) the endogenous viral RT assay on cell supernatant with read-out in log counts per minute/mL (CPM/mL). Upon addition of antiviral compounds to the culture media, a dose-related decrease in virus production was observed. Although the two methodologies measured different parameters (viral RNA versus active RT enzyme), results were not markedly different from each other. The HIV-1 Q-RT-PCR results were compared with a previously established cell-based antiviral drug evaluation assay (endogenous HIV-1 RT polymerization activity in cell supematant)(27).

HepG2 = assay: Toxicity assay (MTS/MTT dye), HepG2 cells; conditions: for Cytotoxicity HepG2 IC30: HepG2, three day-incubation (Table 1); for IC50: read-out: Cytotoxicity HepG2 IC50, HepG2, three day-incubation (Table 3)
Experimental: After a three day-incubation for HepG2, or 5 days for human PBM cells, cell viability and mitochondrial activity were measured in a colorimetric assay using the MTS- or MTT dye method (Promega, Madison, Wis.).

[2] = Human immunodeficiency virus 1, PBMC, 120 h

Row | Structure (SMILES) | Average ΔCt ± SD COXII DNA [1] | Average ΔΔCt ± SD COXII-rDNA [1] | Average ΔΔCt ± SD COXII-β-actin [1] | EC90 (HIV-1 LAI (wild type); [2]) | Cytotoxicity HepG2 IC30 (HepG2) | COXIINrDNA (range) relative to control ([1]; 2-ΔΔCt) | COXIINβ-actin DNA (range) relative to control ([1]; COXII DNA normalized to β-actin DNA, 2-ΔΔCt) | IC50 (HepG2) | EC90 (HIV-1 LAI (wild type))
1 | Cc1cn([C@H]2C[C@H](N=[N+]=[N-])[C@@H](CO)O2)c(=O)[nH]c1=O [AZT, 3′-azido-3′-deoxythymidine, reference compound] | 0.25 ± 0.13 | −0.61 ± 0.56 | 0.16 ± 0.44 | 0.03 µM | – | – | – | – | –
2 | Nc1ccn([C@@H]2CS[C@H](CO)O2)c(=O)n1 [Compound 3TC, (−)-β-2′,3′-dideoxy-3′-thiacytidine, reference compound] | 0.08 ± 0.33 | −0.39 ± 0.50 | −0.02 ± 0.43 | 0.37 µM | >100 µM | 1.31 (0.92-1.88) | 1.02 (0.75-1.37) | – | –
3 | Nc1ccn([C@@H]2C=C(F)[C@H](CO)O2)c(=O)n1 [Compound 10, 1-(2,3-Dideoxy-3-fluoro-β-L-glycero-pent-2-eno-furanosyl)cytosine] | −0.29 ± 0.19 | −0.21 ± 0.51 | – | 50.6 µM | >100 µM | 1.16 (0.81-1.64) | – | – | –
4 | Nc1ccn([C@@H]2C=C(F)[C@H](CO)O2)c(=O)n1 [Compound 23, 1-(2,3-Didcoxy-3-fluoro-β-L-glycero-pent-2-eno-furanosyl)cytosine] | −0.16 ± 0.17 | 0.36 ± 0.41 | – | – | – | 0.78 (0.59-1.04) | – | > 100 µM | 0.92 µM
5 | Nc1ccn([C@@H]2S[C@H](CO)C=C2F)c(=O)n1 [Compound D-17, (−)-1-[(1S,4R)-2,3-dideoxy-2,3-didehydro-2-fluoro4-thio-β-D-ribofuranosyl]-cytosine] | −0.14 ± 0.10 | −0.96 ± 0.56 | – | – | >100 µM | 1.94 (1.31-2.87) | – | > 100 µM | 24.6 µM
6 | Nc1nc(=O)n([C@@H]2S[C@H](CO)C=C2F)cc1F [Compound D-18, (−)-1-[(1S,4R)-2,3-dideoxy-2,3-didehydro-2-fluoro-4-thio-β-D-ribofuranosyl]-5-fluorocytosine] | −0.39 ± 0.43 | 0.06 ± 0.29 | – | – | >100 µM | 0.96 (0.78-1.17) | – | > 100 µM | > 100 µM
7 | Nc1ccn([C@H]2S[C@@H](CO)C=C2F)c(=O)n1 [Compound L-17, (+)-1-[(1S,4R)-2,3-dideoxy-2,3-didehydro-2-fluoro-4-thio-β-L-ribofuranosyl]-cytosine] | −0.05 ± 0.16 | −0.55 ± 0.75 | – | – | >100 µM | 1.46 (0.87-2.47) | – | > 100 µM | 4.1 µM
8 | Nc1nc(=O)n([C@H]2S[C@@H](CO)C=C2F)cc1F [Compound L-18, (+)-1-[(1S,4R)-2,3-dideoxy-2,3-didehydro-2-fluoro-4-thio-β-L-ribofuranosyl]-5-fluoro-cytosine] | −0.06 ± 0.24 | −0.16 ± 0.56 | – | – | >100 µM | 1.12 (0.76-1.64) | – | > 100 µM | 4.3 µM
